Where “and” joins values, the source holds several entries; their conditions need not be identical. Equal entries are not always repeated.
molecular target: T1, AHR (Homo sapiens, UniProt P35869); assay: In vitro assay 1: antagonism in human cell line (AHR transactivation, firefly luciferase reporter, kynurenic acid prestimulated); assay type: cell-based; conditions: AHR Antagonism Human IC50 [M]
T1 construct: U87 MG glioblastoma cells (ATCC #HTB-14) endogenously expressing AHR; endogenous in cells; host or cells: U87 MG glioblastoma cells (ATCC #HTB-14)
T1 sequence (P35869 11-848): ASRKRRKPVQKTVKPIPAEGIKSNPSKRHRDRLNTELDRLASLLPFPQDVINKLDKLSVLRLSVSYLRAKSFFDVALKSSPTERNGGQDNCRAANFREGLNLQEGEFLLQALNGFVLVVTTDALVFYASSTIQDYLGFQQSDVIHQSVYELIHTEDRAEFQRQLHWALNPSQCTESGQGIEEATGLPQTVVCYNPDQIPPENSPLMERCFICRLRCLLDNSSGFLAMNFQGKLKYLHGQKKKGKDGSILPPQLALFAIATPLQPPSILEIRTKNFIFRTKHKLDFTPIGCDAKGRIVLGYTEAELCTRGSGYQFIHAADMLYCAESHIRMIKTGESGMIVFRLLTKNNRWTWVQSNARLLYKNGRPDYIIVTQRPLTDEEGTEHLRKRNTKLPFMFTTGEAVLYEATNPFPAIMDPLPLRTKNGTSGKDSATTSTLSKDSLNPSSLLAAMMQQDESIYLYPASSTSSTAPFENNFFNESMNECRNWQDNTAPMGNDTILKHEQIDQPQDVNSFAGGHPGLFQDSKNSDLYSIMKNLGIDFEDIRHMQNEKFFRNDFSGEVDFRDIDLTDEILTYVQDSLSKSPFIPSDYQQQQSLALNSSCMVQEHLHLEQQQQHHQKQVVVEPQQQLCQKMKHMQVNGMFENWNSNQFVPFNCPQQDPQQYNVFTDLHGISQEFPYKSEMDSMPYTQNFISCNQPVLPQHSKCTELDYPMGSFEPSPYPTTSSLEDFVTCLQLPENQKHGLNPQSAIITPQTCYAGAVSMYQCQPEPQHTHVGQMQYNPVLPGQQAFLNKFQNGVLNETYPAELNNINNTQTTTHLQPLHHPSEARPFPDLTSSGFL
Protocol: Examples were tested in selected biological assays one or more times. When tested more than once, data are reported as either average values or as median values, wherein • the average value, also referred to as the arithmetic mean value, represents the sum of the values obtained divided by the number of times tested, and • the median value represents the middle number of the group of values when ranked in ascending or descending order. If the number of values in the data set is odd, the median is the middle value. If the number of values in the data set is even, the median is the arithmetic mean of the two middle values.
Transactivation assays were carried out in U87 MG glioblastoma cells (ATCC #HTB-14) endogenously expressing AHR. In addition the cells were stably transfected with an AHR inducible firefly luciferase reporter gene construct that carried AHR-binding sites (DRE) in its promoter and a renilla reporter gene construct with constitutively active promoter. Kynurenic acid is an endogenous AHR activating ligand and was used to prestimulate test cells prior to testing the antagonistic properties of compounds.
As positive inhibition control cells supplemented with 150 μM kynurenic acid were incubated in presence of 5 μM Staurosporin. Normalization was done by positive and negative controls.
Firefly luciferase and Renilla activity was determined by the DualGlo Luciferase Assay System (Promega, #2920). Renilla activity was used to assess toxic effects of compounds.

Row | IC50 | Structure (SMILES)
1 | > 2e-05 M | Cn1cc(-c2nc3c4ccccc4nc(NC4CCNC4=O)n3n2)cn1 (single isomer, unassigned) [Example 19, 3-{[2-(1-methyl-1H-pyrazol-4-yl)[1,2,4]triazolo[1,5-c]quinazolin-5-yl]amino}pyrrolidin-2-one]
2 | > 4e-05 M | Cn1cc(-c2nc3c4ccccc4nc(NC4CNCCNC4=O)n3n2)cn1 (single isomer, unassigned) [Example 24, 6-{[2-(1-methyl-1H-pyrazol-4-yl)[1,2,4]triazolo[1,5-c]quinazolin-5-yl]amino}-1,4-diazepan-5-one]
3 | 3.4e-10 M | O=C1NCCCC[C@H]1Nc1nc2ccccc2c2nc(-c3ccccc3)nn12 [Example 5, (3R)-3-[(2-phenyl[1,2,4]triazolo[1,5-c]quinazolin-5-yl)amino]azepan-2-one]
4 | 1.05e-08 M | O=C1NCCCC[C@H]1Nc1nc2ccccc2c2nc(-c3ccccc3Cl)nn12 [Example 58, (3R)-3-{[2-(2-chlorophenyl)[1,2,4]triazolo[1,5-c]quinazolin-5-yl]amino}azepan-2-one]
5 | 1.62e-10 M | O=C1NCCCC[C@H]1Nc1nc2ccccc2c2nc(-c3ccc(F)cc3)nn12 [Example 74, (3R)-3-{[2-(4-fluorophenyl)[1,2,4]triazolo[1,5-c]quinazolin-5-yl]amino}azepan-2-one]
6 | 3.17e-08 M | COc1cccc(-c2nc3c4ccc(C)cc4nc(N[C@@H]4CCCCNC4=O)n3n2)c1 [Example 145, (3R)-3-{[2-(3-methoxyphenyl)-8-methyl[1,2,4]triazolo[1,5-c]quinazolin-5-yl]amino}azepan-2-one]
7 | 2.14e-08 M | O=C1NCCCC[C@H]1Nc1nc2cccc(Br)c2c2nc(-c3cccc(F)c3)nn12 [Example 163, (3R)-3-{[10-bromo-2-(3-fluorophenyl)[1,2,4]triazolo[1,5-c]quinazolin-5-yl]amino}azepan-2-one]
8 | 6.39e-09 M | O=C1NCCCC[C@H]1Nc1nc2cccc(Cl)c2c2nc(-c3cccc(F)c3)nn12 [Example 167, (3R)-3-{[10-chloro-2-(3-fluorophenyl)[1,2,4]triazolo[1,5-c]quinazolin-5-yl]amino}azepan-2-one]
9 | 6.2e-08 M | O=C1NCCCC[C@H]1Nc1nc2cccc(C(F)(F)F)c2c2nc(-c3cccc(F)c3)nn12 [Example 171, (3R)-3-{[2-(3-fluorophenyl)-10-(trifluoromethyl)[1,2,4]triazolo[1,5-c]quinazolin-5-yl]amino}azepan-2-one]
10 | 1.82e-06 M | CCOc1ccccc1-c1nc2c3ccccc3nc(N[C@@H]3CCCCNC3=O)n2n1 [Example 198, (3R)-3-{[2-(2-ethoxyphenyl)[1,2,4]triazolo[1,5-c]quinazolin-5-yl]amino}azepan-2-one]
11 | 3.56e-10 M | O=C1NCCCC[C@H]1Nc1nc2ccccc2c2nc(-c3ccc(F)cc3F)nn12 [Example 201, (3R)-3-{[2-(2,4-difluorophenyl)[1,2,4]triazolo[1,5-c]quinazolin-5-yl]amino}azepan-2-one]
12 | 3.04e-07 M | COc1ccc(-c2nc3c4ccc(C5CC5)cc4nc(N[C@@H]4CCCCNC4=O)n3n2)cc1 [Example 251, (3R)-3-{[8-Cyclopropyl-2-(4-methoxyphenyl)[1,2,4]triazolo[1,5-c]quinazolin-5-yl]amino}azepan-2-one]

The next lines start with the compound.

Row | Structure (SMILES) | IC50
13 | CCNC(=O)C(CC)Nc1nc2ccccc2c2nc(-c3cccc(OC(F)(F)F)c3)nn12 (single isomer, unassigned) [Example 320, N-ethyl-2-({2-[3-(trifluoromethoxy)phenyl][1,2,4]triazolo[1,5-c]quinazolin-5-yl}amino)butanamide] | 1.21e-06 M
14 | COc1cccc(-c2nc3c4ccccc4nc(NC4CCN(C)C4=O)n3n2)c1 (stereo not drawn) [Example 80, 3-{[2-(3-methoxyphenyl)[1,2,4]triazolo[1,5-c]quinazolin-5-yl]amino}-1-methylpyrrolidin-2-one] | 2.53e-08 M
15 | COc1cccc(-c2nc3c4ccccc4nc(NC4(C(N)=O)CCCC4)n3n2)c1 [Example 99, 1-{[2-(3-methoxyphenyl)[1,2,4]triazolo[1,5-c]quinazolin-5-yl]amino}cyclopentane-1-carboxamide] | 6.78e-08 M
16 | Cc1ccc2c(c1)nc(N[C@@H]1CCCCNC1=O)n1nc(-c3cnn(C)c3)nc21 [Example 147, (3R)-3-{[8-methyl-2-(1-methyl-1H-pyrazol-4-yl)[1,2,4]triazolo[1,5-c]quinazolin-5-yl]amino}azepan-2-one] | 7.53e-07 M
17 | COc1cccc(-c2nc3c4ccc(F)cc4nc(N[C@H]4CCNC4=O)n3n2)c1 [Example 149, (3S)-3-{[8-fluoro-2-(3-methoxyphenyl)[1,2,4]triazolo[1,5-c]quinazolin-5-yl]amino}pyrrolidin-2-one] | 1.81e-07 M
18 | Cn1cc(-c2nc3c4c(C5CC5)cccc4nc(N[C@@H]4CCCCNC4=O)n3n2)cn1 [Example 177, (3R)-3-{[10-cyclopropyl-2-(1-methyl-1H-pyrazol-4-yl)[1,2,4]triazolo[1,5-c]quinazolin-5-yl]amino}azepan-2-one] | 7.35e-07 M
19 | Cn1cc(-c2nc3c4ccc(C(F)(F)F)cc4nc(N[C@@H]4CCCCNC4=O)n3n2)cn1 [Example 227, (3R)-3-{[2-(1-methyl-1H-pyrazol-4-yl)-8-(trifluoromethyl)[1,2,4]triazolo[1,5-c]quinazolin-5-yl]amino}azepan-2-one] | 2.65e-06 M
20 | Cn1cc(-c2nc3c4ccc(Br)cc4nc(N[C@@H]4CCCCNC4=O)n3n2)cn1 [Example 230, (3R)-3-{[8-bromo-2-(1-methyl-1H-pyrazol-4-yl)[1,2,4]triazolo[1,5-c]quinazolin-5-yl]amino}azepan-2-one] | 1.97e-06 M
21 | COc1ccc(-c2nc3c4ccc(OC)cc4nc(N[C@@H]4CNCCNC4=O)n3n2)cc1 [Example 272, (6R)-6-{[8-methoxy-2-(4-methoxyphenyl)[1,2,4]triazolo[1,5-c]quinazolin-5-yl]amino}-1,4-diazepan-5-one] | 2.77e-06 M
22 | CCCCNC(=O)CNc1nc2ccccc2c2nc(-c3cccc(OC(F)(F)F)c3)nn12 [Example 317, N-butyl-N^2-{2-[3-(trifluoromethoxy)phenyl][1,2,4]triazolo[1,5-c]quinazolin-5-yl}glycinamide] | 1.45e-07 M
23 | CCCCC(Nc1nc2ccccc2c2nc(-c3cccc(OC(F)(F)F)c3)nn12)C(N)=O (stereo not drawn) [Example 323] | > 2e-05 M and 1.32e-05 M and 8.31e-06 M

molecular target: T2, AHR (Mus musculus, UniProt P30561); assay: In vitro assay 3: antagonism in mouse cell line (AHR transactivation, firefly luciferase reporter, kynurenic acid prestimulated); assay type: cell-based; conditions: Hepa 1c1c7 cells, 200 μM kynurenic acid, 20 hours, firefly luciferase reporter, read-out: AHR Antagonism Mouse IC50
T2 sequence (P30561 1-848 P471L/N533S/M589L): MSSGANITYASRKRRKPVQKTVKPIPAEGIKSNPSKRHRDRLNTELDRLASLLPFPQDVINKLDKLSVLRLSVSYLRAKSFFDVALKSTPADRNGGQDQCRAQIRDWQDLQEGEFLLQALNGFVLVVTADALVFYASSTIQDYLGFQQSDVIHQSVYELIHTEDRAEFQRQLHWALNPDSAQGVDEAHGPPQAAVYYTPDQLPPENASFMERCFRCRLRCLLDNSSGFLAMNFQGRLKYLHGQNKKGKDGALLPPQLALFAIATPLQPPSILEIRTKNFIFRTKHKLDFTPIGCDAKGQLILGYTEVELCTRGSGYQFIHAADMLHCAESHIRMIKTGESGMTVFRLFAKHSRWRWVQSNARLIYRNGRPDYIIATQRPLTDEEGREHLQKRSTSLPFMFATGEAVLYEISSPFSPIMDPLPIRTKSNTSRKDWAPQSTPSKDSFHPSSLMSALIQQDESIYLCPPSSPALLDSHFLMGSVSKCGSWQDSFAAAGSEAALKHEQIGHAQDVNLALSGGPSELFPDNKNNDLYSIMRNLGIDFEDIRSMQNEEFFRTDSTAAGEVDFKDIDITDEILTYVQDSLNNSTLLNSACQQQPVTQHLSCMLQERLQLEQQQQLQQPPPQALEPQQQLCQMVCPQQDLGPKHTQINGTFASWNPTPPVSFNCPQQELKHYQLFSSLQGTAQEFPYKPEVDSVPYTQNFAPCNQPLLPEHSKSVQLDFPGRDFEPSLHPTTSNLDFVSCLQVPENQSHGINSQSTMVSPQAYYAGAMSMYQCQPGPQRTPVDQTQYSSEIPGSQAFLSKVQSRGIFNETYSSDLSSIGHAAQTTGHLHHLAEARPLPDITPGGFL
Procedure, shortened: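 Mouse cells stably carrying a DRE-driven, AHR-inducible firefly luciferase reporter were prestimulated with the endogenous agonist kynurenic acid before compound addition. Luciferase activity was measured by luminescence and normalized to positive and negative controls, with cells lacking kynurenic acid serving as full-inhibition control. Repeat tests are reported as mean or median.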

Row | IC50 [nM] | Structure (SMILES)
24 | 0.41 | O=C1NCCNC[C@H]1Nc1nc2c(Br)cccc2c2nc(-c3ccc(Cl)cc3)nn12 [Example 977, (6R)-6-{[7-bromo-2-(4-chlorophenyl)[1,2,4]triazolo[1,5-c]quinazolin-5-yl]amino}-1,4-diazepan-5-one]

From US20230113037A1 (Bayer Aktiengesellschaft, priority 2019, published 2023)
